Consider 28 compounds from ChEMBL document CHEMBL1132704, “Design and synthesis of sulfonyl-substituted 4,5-diarylthiazoles as selective cyclooxygenase-2 inhibitors” (Bioorg Med Chem Lett, 1999).

In assay [1] the target is T1, Prostaglandin G/H synthase 2 (Homo sapiens, UniProt P35354).
T1 sequence (P35354 whole entry): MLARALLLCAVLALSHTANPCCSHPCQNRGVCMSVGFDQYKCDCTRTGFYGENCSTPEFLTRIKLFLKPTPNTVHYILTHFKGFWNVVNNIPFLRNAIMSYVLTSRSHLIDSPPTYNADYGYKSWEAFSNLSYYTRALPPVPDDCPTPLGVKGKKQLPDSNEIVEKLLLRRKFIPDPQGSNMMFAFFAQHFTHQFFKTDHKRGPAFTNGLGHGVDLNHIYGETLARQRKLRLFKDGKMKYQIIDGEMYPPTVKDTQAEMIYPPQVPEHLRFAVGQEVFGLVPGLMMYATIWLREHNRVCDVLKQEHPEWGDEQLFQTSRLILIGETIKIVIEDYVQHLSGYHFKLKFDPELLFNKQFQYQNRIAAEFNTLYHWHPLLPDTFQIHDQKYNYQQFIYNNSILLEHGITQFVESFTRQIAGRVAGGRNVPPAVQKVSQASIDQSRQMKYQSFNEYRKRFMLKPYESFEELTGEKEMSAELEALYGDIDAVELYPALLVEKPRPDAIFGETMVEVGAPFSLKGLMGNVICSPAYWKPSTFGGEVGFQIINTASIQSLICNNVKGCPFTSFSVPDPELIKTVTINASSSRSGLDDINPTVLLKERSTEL

Assay [2] concerns the target Prostaglandin G/H synthase 1 (Homo sapiens, UniProt P23219).
Description: Inhibition of human cyclooxygenase-1 (hCOX-1) enzyme.
Assay [3] concerns Rattus norvegicus. Briefly: Compound was evaluated for the percent inhibition of hyperalgesia at an effective dose of 20 mg/kg in rat. It is filed as functional.
The test system of assay [4] is Rattus norvegicus. As to the kind of experiment: Compound was evaluated for the antiinflammatory activity in vivo in the carrageenan rat paw edema (CPE). It counts as functional.

Prostaglandin G/H synthase 1, sequence (P23219 whole entry): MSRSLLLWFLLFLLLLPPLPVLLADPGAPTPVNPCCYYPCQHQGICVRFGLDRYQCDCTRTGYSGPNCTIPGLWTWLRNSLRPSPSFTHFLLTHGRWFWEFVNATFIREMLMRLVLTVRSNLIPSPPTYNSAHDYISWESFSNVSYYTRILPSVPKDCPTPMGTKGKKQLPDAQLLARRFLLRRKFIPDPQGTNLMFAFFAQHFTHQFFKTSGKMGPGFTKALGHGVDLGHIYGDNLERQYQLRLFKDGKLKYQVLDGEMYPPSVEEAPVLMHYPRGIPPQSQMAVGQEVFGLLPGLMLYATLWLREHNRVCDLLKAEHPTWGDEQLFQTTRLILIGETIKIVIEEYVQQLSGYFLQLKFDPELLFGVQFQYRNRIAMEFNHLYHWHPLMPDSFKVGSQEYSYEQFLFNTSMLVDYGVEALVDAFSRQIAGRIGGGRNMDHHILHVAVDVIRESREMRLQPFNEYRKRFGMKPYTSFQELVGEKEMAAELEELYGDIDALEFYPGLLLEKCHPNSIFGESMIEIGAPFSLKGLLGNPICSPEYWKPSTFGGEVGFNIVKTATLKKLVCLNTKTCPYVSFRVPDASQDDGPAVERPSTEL

As for `CS(=O)(=O)c1ccc(-c2sc(CCCc3ccc(Br)cc3)nc2-c2ccc(F)cc2)cc1`, the 50% inhibitory concentration (IC50) was 0.007 µM in assay [1] and greater than 10 µM in assay [2].
As for `CS(=O)(=O)c1ccc(-c2sc(-c3cccs3)nc2-c2ccc(F)cc2)cc1`, the IC50 was 0.021 µM in assay [1] and greater than 100 µM in assay [2].
For the compound `CS(=O)(=O)c1ccc(-c2sc(CCCc3ccccc3)nc2-c2ccc(F)cc2)cc1`, the IC50 is 0.52 µM in assay [1] and greater than 1000 µM in assay [2].
The matching figures for `Cc1nc(-c2ccc(F)cc2)c(-c2ccc(S(C)(=O)=O)cc2)s1`: 0.11 µM and greater than 10 µM.
The matching figures for `CS(=O)(=O)c1ccc(-c2sc(-c3ccncc3)nc2-c2ccc(F)cc2)cc1`: 1.6 µM and greater than 100 µM.
As to `CS(=O)(=O)c1ccc(-c2sc(-c3ccccc3Cl)nc2-c2ccc(F)cc2F)cc1`, in assay [1], the half-inhibitory concentration (IC50) came out at 0.021 µM.
As to `CS(=O)(=O)c1ccc(-c2nc(C(F)(F)F)sc2-c2ccc(F)cc2)cc1`, the values for the IC50 in assay [1] and in assay [2] were 0.006 µM and 1.07 µM, respectively.
The matching figures for `CC(C)(C)c1nc(-c2ccc(F)cc2)c(-c2ccc(S(C)(=O)=O)cc2)s1`: 0.11 µM and greater than 100 µM.
`CS(=O)(=O)c1ccc(-c2sc(-c3ccccc3Cl)nc2-c2cccs2)cc1` registered a 50% inhibitory concentration (IC50) in assay [2] greater than 100 µM.
In the case of `CC(C)(C)c1ccc(-c2nc(-c3ccc(F)cc3)c(-c3ccc(S(C)(=O)=O)cc3)s2)cc1`, the IC50 in assay [1] and in assay [2] was greater than 100 µM each time.
Consider `CS(=O)(=O)c1ccc(-c2sc(-c3ccccc3Cl)nc2-c2cc(F)ccc2F)cc1`, for which the IC50 in assay [1] and in assay [2] was greater than 100 µM in each case.
For the compound `CS(=O)(=O)c1ccc(-c2sc(-c3ccccc3Cl)nc2-c2ccsc2)cc1`, the IC50 in assay [2] was greater than 100 µM.
`CS(=O)(=O)c1ccc(-c2sc(Cc3ccccc3)nc2-c2ccc(F)cc2)cc1`: the IC50 in assay [1] is 0.018 µM; in assay [2] it was greater than 100 µM.
As for `CS(=O)(=O)c1ccc(-c2sc(C(F)(F)F)nc2-c2ccc(F)cc2)cc1`, the values for the IC50 in assay [1] and in assay [2] were 0.023 µM and greater than 100 µM, respectively.
In the same order, the values of `Cc1nc(-c2ccc(S(C)(=O)=O)cc2)c(-c2ccc(F)cc2)s1` are 0.12 µM and greater than 100 µM.
As to `CCc1nc(-c2ccc(F)cc2)c(-c2ccc(S(C)(=O)=O)cc2)s1`, the 50% inhibitory concentration (IC50) in assay [1] came out at 0.023 µM; in assay [2], 19 µM.
In the same order, the values of `CS(=O)(=O)c1ccc(-c2sc(-c3cccnc3)nc2-c2ccc(F)cc2)cc1` are 0.43 µM and greater than 1000 µM.
In the case of `CS(=O)(=O)c1ccc(-c2sc(-c3ccccc3Cl)nc2-c2ccc(F)cc2)cc1`, the concentration for half-maximal inhibition (IC50) in assay [1] is 0.05 µM; in assay [2], greater than 100 µM. For the same compound, in the assay on Rattus norvegicus [3], 20 mg/kg produced 27% inhibition in vivo. The compound also returned a 50% effective dose (ED50) in the assay on Rattus norvegicus [4] of 20 mg/kg.
Turning to `CS(=O)(=O)c1ccc(-c2sc(-c3ccc(Cl)cc3)nc2-c2ccc(F)cc2)cc1`, the IC50 is 0.05 µM in assay [1] and greater than 100 µM in assay [2].
In the same order, the values of `CS(=O)(=O)c1ccc(-c2sc(CCc3ccccc3)nc2-c2ccc(F)cc2)cc1` are 0.032 µM and greater than 100 µM.
`COc1ccc(-c2nc(-c3ccc(F)cc3)c(-c3ccc(S(C)(=O)=O)cc3)s2)cc1`: the IC50 is 0.27 µM in assay [1] and greater than 10 µM in assay [2].
As for `CCOC(=O)c1nc(-c2ccc(F)cc2)c(-c2ccc(S(C)(=O)=O)cc2)s1`, the values for the IC50 in assay [1] and in assay [2] were 0.61 µM and greater than 100 µM, respectively.
In the same order, the values of `CS(=O)(=O)c1ccc(-c2sc(-c3ccccc3Cl)nc2-c2ccccc2F)cc1` are 0.01 µM and greater than 100 µM.
With `CS(=O)(=O)c1ccc(-c2sc(-c3ccccc3Cl)nc2-c2cccc(F)c2)cc1`, the IC50 in assay [1] is 0.016 µM; in assay [2] it was greater than 100 µM.
In the same order, the values of `CS(=O)(=O)c1ccc(-c2nc(-c3ccccc3)sc2-c2ccc(F)cc2)cc1` are 0.54 µM and greater than 100 µM.
The matching figures for `CS(=O)(=O)c1ccc(-c2sc(CC#N)nc2-c2ccc(F)cc2)cc1`: 0.35 µM and greater than 100 µM.
In the same order, the values of `CS(=O)(=O)c1ccc(-c2sc(-c3ccccc3)nc2-c2ccc(F)cc2)cc1` are greater than 30 µM and greater than 100 µM.
Turning to `CS(=O)(=O)c1ccc(-c2sc(-c3ccccc3Cl)nc2-c2ccccc2)cc1`, the results for the IC50 in assay [1] and in assay [2] were 0.01 µM and greater than 100 µM, respectively.
